Data set [1] has as its system Plasmodium falciparum. Nature of the data set: Antimalarial activity against schizont stage of chloroquine-susceptible Plasmodium falciparum 3D7 infected in erythrocytes assessed as inhibition of [3H]hypoxanthine incorporation after 96 hrs by scintillation counting analysis. It counts as functional, organism-based.
The subject of data set [2] is Toxoplasma gondii. Nature of the data set: Antitoxoplasma activity against Toxoplasma gondii RH tachyzoites isolated from human brain assessed as parasite growth inhibition after 48 hrs by hematoxylin-eosin staining based light microscopy. In kind it is functional, organism-based.
In data set [3] the test system is Plasmodium falciparum. Nature of the data set: Antimalarial activity against schizont stage of atovaquone-resistant Plasmodium falciparum Tm90C2b infected in erythrocytes assessed as inhibition of [3H]hypoxanthine incorporation after 96 hrs by scintillation counting analysis. In kind it is functional, organism-based.
Data set [4] deals with Plasmodium falciparum. The experiment in a line: Antimalarial activity against schizont stage of atovaquone-resistant Plasmodium falciparum Tm90C2b infected in erythrocytes assessed as inhibition of [3H]hypoxanthine incorporation after 48 hrs by scintillation counting analysis. It counts as functional, organism-based.
The subject of data set [5] is Plasmodium falciparum. The experiment in a line: Antimalarial activity against schizont stage of chloroquine-resistant Plasmodium falciparum W2 infected in erythrocytes assessed as inhibition of [3H]hypoxanthine incorporation after 96 hrs by scintillation counting analysis. It counts as functional, organism-based.
Data set [6] can be described thus: Cytotoxicity against concanavalin A stimulated BALB/c mouse splenocytes after 72 hrs by alamar blue dye based plate reader analysis. It counts as cell-based, Splenocyte. The note with it: read-out: LD50.
Data set [7] relates to Plasmodium falciparum. Nature of the data set: Antimalarial activity against schizont stage of chloroquine-resistant Plasmodium falciparum W2 infected in erythrocytes assessed as inhibition of [3H]hypoxanthine incorporation after 48 hrs by scintillation counting analysis. It counts as functional, organism-based.
For data set [8], the system named is Plasmodium falciparum. The experiment in a line: Antimalarial activity against schizont stage of chloroquine-susceptible Plasmodium falciparum 3D7 infected in erythrocytes assessed as inhibition of [3H]hypoxanthine incorporation after 48 hrs by scintillation counting analysis. In kind it is functional, organism-based.
Data set [9] in a line: Stability of the compound in RPMI medium assessed as half life at 100 uM by HPLC analysis in presence of 10% human serum. The note with it: RPMI medium with 10% human serum. It counts as physicochemical.
The subject of data set [10] is Toxoplasma gondii. The experiment in a line: Antitoxoplasma activity against Toxoplasma gondii RH tachyzoites isolated from human brain assessed as parasite growth inhibition after 24 hrs by hematoxylin-eosin staining based light microscopy. It counts as functional, organism-based.
Data set [11] can be described thus: Chemical stability of the compound in aqueous phosphate buffer of pH 7.4 assessed as half life at 100 uM by HPLC analysis. In kind it is physicochemical.
The nature of data set [12]: Cytotoxicity against rhesus monkey LLC-MK2 cells assessed as cell viability after 48 hrs by MTS assay. It counts as cell-based, Macaca mulatta. The note with it: read-out: LD50.
The subject of data set [13] is Plasmodium falciparum. The experiment in a line: Ratio of ciprofloxacin IC50 to compound IC50 for chloroquine-susceptible Plasmodium falciparum 3D7 infected in erythrocytes after 48 hrs. In kind it is functional.
The subject of data set [14] is Plasmodium falciparum. The experiment in a line: Ratio of ciprofloxacin IC50 to compound IC50 for atovaquone-resistant Plasmodium falciparum Tm90C2b infected in erythrocytes after 48 hrs. In kind it is functional.
The subject of data set [15] is Plasmodium falciparum. Nature of the data set: Ratio of ciprofloxacin IC50 to compound IC50 for chloroquine-resistant Plasmodium falciparum W2 infected in erythrocytes after 48 hrs. In kind it is functional.
The test system of data set [16] is Plasmodium falciparum. The experiment in a line: Ratio of ciprofloxacin IC50 to compound IC50 for chloroquine-resistant Plasmodium falciparum W2 infected in erythrocytes after 96 hrs. In kind it is functional.
Data set [17] concerns Plasmodium falciparum. The experiment in a line: Ratio of ciprofloxacin IC50 to compound IC50 for chloroquine-susceptible Plasmodium falciparum 3D7 infected in erythrocytes after 96 hrs. In kind it is functional.
Data set [18] relates to Plasmodium falciparum. The experiment in a line: Ratio of ciprofloxacin IC50 to compound IC50 for atovaquone-resistant Plasmodium falciparum Tm90C2b infected in erythrocytes after 96 hrs. In kind it is functional.
Data set [19] can be described thus: Therapeutic index, ratio of LD50 for rhesus monkey LLC-MK2 cells to IC50 for Toxoplasma gondii RH tachyzoites. In kind it is cell-based. To be noted: read-out: Ratio LD50/IC50.
Data set [20] can be described thus: Therapeutic index, ratio of LD50 for concanavalin A stimulated BALB/c mouse splenocytes to IC50 for chloroquine-susceptible Plasmodium falciparum 3D7 infected in erythrocytes. In kind it is cell-based. To be noted: read-out: Ratio LD50/IC50.

Bounds are passed on as bounds.

As for `CCOC(=O)c1cn(C2CC2)c2cc(N3CCN(Cc4ccccc4)CC3)c(F)cc2c1=O`, the IC50 (commonly the point on the concentration scale where inhibition reaches its midpoint) came to 320 nM with Plasmodium falciparum [1]; 1240 nM in the data set on Toxoplasma gondii [2]; 2350 nM in the data set on Plasmodium falciparum [3]; 2560 nM in the data set with Plasmodium falciparum [4] (read-out: IC50); 490 nM in the data set on Plasmodium falciparum [5]; 1610 nM with Plasmodium falciparum [7]. Moreover, the IC50 in the data set on Plasmodium falciparum [8] amounted to 1080 nM; in the data set with Toxoplasma gondii [10], 1700 nM. In data set [6], the CC50 at 72 h stood at 57000 nM. The half-life at 100 µM in data set [9] and in data set [11] was more than 76 h in each case. The CC50 at 48 h in data set [12] was more than 30000 nM.
As to `CCOC(=O)c1cn(C2CC2)c2cc(N3CCN(CCC45CC6CC(CC(C6)C4)C5)CC3)c(F)cc2c1=O`, the half-maximal inhibitory concentration (IC50) in the data set with Plasmodium falciparum [1] was determined as 410 nM; in the data set with Toxoplasma gondii [2], 460 nM; with Plasmodium falciparum [3], 2230 nM; in the data set with Plasmodium falciparum [4] (read-out: IC50), 2460 nM; in the data set with Plasmodium falciparum [5] it was 710 nM; in the data set with Plasmodium falciparum [7], 2060 nM. Moreover, the concentration for half-maximal inhibition (IC50) was found to be 1000 nM with Plasmodium falciparum [8] and 920 nM with Toxoplasma gondii [10]. The “Ratio IC50” value worked out at 47 in the data set on Plasmodium falciparum [13]; 29 in the data set on Plasmodium falciparum [14]; 60 with Plasmodium falciparum [15]; 7 with Plasmodium falciparum [16]; 31 in the data set with Plasmodium falciparum [17]; 7 in the data set with Plasmodium falciparum [18]. The CC50 at 72 h in data set [6] was more than 100000 nM. Also, the selectivity ratio in data set [19] was more than 60; in [20] it was more than 100. Besides, the half-life at 100 µM in data set [9] and in data set [11] was more than 76 h throughout. Moreover, the CC50 at 48 h in [12] came out at 27800 nM.
`O=C1C(O)=C([C@H]2CC[C@H](c3ccc(Cl)cc3)CC2)C(=O)c2ccccc21` [ATOVAQUONE]: the IC50 in the data set on Plasmodium falciparum [1] was 1.9 nM; with Plasmodium falciparum [3], 388 nM; with Plasmodium falciparum [4] (read-out: IC50), more than 10000 nM; in the data set with Plasmodium falciparum [5], 2 nM; in the data set on Plasmodium falciparum [7], 3.9 nM; in the data set on Plasmodium falciparum [8], 2.3 nM.
As for `CCOC(=O)c1cn(C2CC2)c2cc(N3CCNCC3)c(F)cc2c1=O` [CIPROFLOXACIN ETHYL ESTER], the IC50 in the data set on Plasmodium falciparum [1] worked out at 890 nM; in the data set with Toxoplasma gondii [2], 420 nM; in the data set with Plasmodium falciparum [3], 2270 nM; with Plasmodium falciparum [4] (read-out: IC50), 3560 nM; in the data set on Plasmodium falciparum [5], 840 nM; in the data set with Plasmodium falciparum [7] it was 3670 nM. Besides, the results for the IC50 with Plasmodium falciparum [8] and in the data set on Toxoplasma gondii [10] were 2330 nM and 960 nM, respectively. The CC50 at 72 h in data set [6] was more than 40000 nM. The half-life at 100 µM in data set [9] and in [11] was more than 76 h throughout. For the same molecule, the CC50 at 48 h in data set [12] is more than 30000 nM.
Consider `O=C(O)c1cn(C2CC2)c2cc(N3CCNCC3)c(F)cc2c1=O` [CIPROFLOXACIN], for which the IC50 with Plasmodium falciparum [1] was 12800 nM; in the data set on Plasmodium falciparum [3] it was 15300 nM; in the data set with Plasmodium falciparum [4], 71800 nM; in the data set on Plasmodium falciparum [5], 16800 nM; in the data set with Plasmodium falciparum [7], 122000 nM; in the data set on Plasmodium falciparum [8], 47000 nM.
Turning to `CCc1nc(N)nc(N)c1-c1ccc(Cl)cc1` [PYRIMETHAMINE], the IC50 in the data set on Plasmodium falciparum [1] was 2.1 nM; with Toxoplasma gondii [2] it was 120 nM; in the data set on Plasmodium falciparum [3], 1.4 nM; with Plasmodium falciparum [4] (read-out: IC50), 14.6 nM; in the data set on Plasmodium falciparum [5] it was 2.3 nM; in the data set on Plasmodium falciparum [7], 10.4 nM. Further, the IC50 was 13.3 nM with Plasmodium falciparum [8] and 240 nM in the data set with Toxoplasma gondii [10].
Take `C=C[C@H]1CN2CC[C@H]1C[C@H]2[C@H](O)c1ccnc2ccc(OC)cc12` [QUININE]: the IC50 turned out to be 112 nM in the data set on Plasmodium falciparum [1], 1070 nM with Plasmodium falciparum [4] (read-out: IC50) and 917 nM in the data set on Plasmodium falciparum [7].
